Columns and labels:
[1] = test system: latent HIV in 89mASG- and R7GEmC-infected single-positive Jurkat T cells; assay: Reactivation of latent HIV in sorted single-positive (latent) Jurkat T cells, FACS; format: cell-based, HIV-1; details: for reactivation activity (percent population in the productive gate): 89mASG and R7GEmC single-positive latent populations, 30, 10 and 3 μM; for expression of HIV promoter-dependent reporter: 89mASG and R7GEmC latent Jurkat T cells, 10 ng/ml TNFα, 5 μM prostratin or 2.5 μM SAHA alone
HIV RNA expression = details: recent study; cited from earlier work
[2] = test system: latent HIV in sorted GFP-only 89mASG-infected Jurkat cells; assay: High-throughput imaging screen for latent HIV reactivation (Tocriscreen library); format: cell-based, HIV-1; details: 24 hr; for red signal (mApple, reactivated virus) versus negative controls: positive control wells, 10 ng/ml TNFα, 5 μM prostratin or 2.5 μM SAHA and combinations; for reactivation of latent HIV in the screen: 30 μM, total red area higher than median+2 SD of negative control wells
From the text: (§1) Sorted 89mASG-infected, GFP-only-positive Jurkat cells were used to test the Tocriscreen drug library for latent HIV reactivation (see Methods). (a) Dot plot showing quantification of total blue area (Hoechst 33342 signal, total cell) against total red area (mApple signal, reactivated HIV). Red dots indicate the position of untreated wells (Negative controls); the shaded area indicates the median±2SD of the red/blue area ratio for negative control wells. Green dots indicate positive control wells, treated with 10 ng/ml TNFα, 5 μM prostratin or 2.5 μM SAHA and their combinations. […] Representative FACS plots of sorted single-positive Jurkat T cells for both viruses. The productive gate contains the reactivated cells. […] (c,d) Histogram plot of percent population in the productive gate (grey) for each treatment and percentage of cells in the live gate (light blue) for sorted single-positive Jurkat T cells for 89mASG (c) and R7GEmC (d) reporters. Data shown as mean±SD for three different treatments. For each compound, a grey triangle between the histograms indicates decreasing drug concentration (30, 10 and 3 μM). […] (e) FACS analysis of drug treatments combined with 0.5 μM SAHA, 0.5 μM prostratin and 0.5 ng/ml TNFα. Representative FACS plots of sorted GFP-only-positive Jurkat T cells for 89mASG treated with DMSO (control), SAHA (0.5 μM) alone or with terreic acid (10 μM) and dilazep (30 μM). (f) Histogram plot of percent population of the sorted cells in the productive gate for each treatment at indicated concentrations (μM).

[3] = test system: latent provirus in mCherry-only R7GEmC-infected primary CD4+ T cells; assay: Reactivation of sorted mCherry-only (latent) primary CD4+ T cells infected with R7GEmC; format: cell-based, HIV-1; details: for response of mCherry-only positive cells to treatment: three pooled donors, 1 μM prostratin, 1 μM SAHA
Procedure: HEK293T, Jurkat, A301 and SupT1 cell lines were obtained from ATCC. Suspension cells were cultured in RPMI 1640 supplemented with 10% FBS, 100 U/ml penicillin, […] streptomycin and 2 mM L-glutamine (PSG) (37° C., 5% CO2). Peripheral blood from healthy human donors was obtained from the Stanford Blood Center and processed the day of collection. CD4^+ T cells were isolated with RosetteSep Human CD4^+ T-Cell Enrichment Cocktail (Stem Cell Technologies) and cultured in human cell medium (HCM, RPMI, 10% human AB pooled serum, PSG). Resting CD4^+ T cells were activated in U-bottom 96-well TC plates with 25 μl human anti-CD3 and anti-CD28-coated dynabeads/10^6 cells (48 h). Dynabeads were removed by magnetic separation and cells seeded in HCM with 30 IU/ml rhIL-2. Cell lines and activated CD4^+ cells were infected by spinoculation (Lassen et al., PLoS One. 2012; 7(1):e30176, which is hereby incorporated by reference in its entirety) with a virus amount equivalent to 20 ng p24 or as indicated. Viral infection was assessed by fluorescence activated cell sorting (FACS) analysis after 72 h. At 5 days post-infection, cells were sorted to separate negative, single- or double-positive cells. Sorted cell lines were treated after re-expansion for 5-15 days. Cells were seeded in 96-well U plates and treated for 24 h before analysis. […]
The extent to which mCherry-only-positive populations could be reactivated by further stimulation was next evaluated. […]
(a) FACS analysis of activated CD4^+ T cells from two human donors (#1, #2) infected with R7GEmC at indicated virus amounts. (b) Fluorescence microscopy image of infected CD4^+ T cells showing mCherry-positive (latent, red) and GFP-positive (active, green) cells. (c) qPCR quantification of proviral DNA in the sorted populations, using primer-probe combinations for the HIV-1 gag gene and the RNAseP gene for normalization. […] (d) Western blot quantification of HIV gag and cell α-actin in sorted CD4^+ T cell populations from pooled donors. […]

[4] = test system: latent HIV in sorted latent-cell populations (GFP-only-positive 89mASG Jurkat T cells); assay: Co-treatment with low levels of SAHA, prostratin or TNFα, FACS; format: cell-based, HIV-1; details: 24 h; for effect on HIV latency in combination with SAHA: 10 μM with low SAHA (0.5 μM); for interaction with prostratin: with low prostratin (0.5 μM)
From the text: Thus, it might be of interest to identify compounds that can potentiate HIV reactivation by SAHA or prostratin or TNFα.
as §1

[5] = test system: R7GEmC infection of activated CD4+ T cells; assay: Infection of activated CD4+ T cells with R7GEmC in the presence of integrase inhibitor (pre-integration latency); format: cell-based, HIV-1; details: 30 μM Raltegravir; after 3 days
From the text: HIV latency in vivo is reported to result, in part, from pre-integration latency, whereby unintegrated proviral DNA (after full retrotranscription) is maintained in a stable cytoplasmic form in a quiescent cell, and can respond to cell activation by de novo integration and productive infection. To rule out pre-integration latency, activated CD4^+ T cells were infected with R7GEmC in the presence of the HIV integrase inhibitor raltegravir (FIG. 6A).
(a) FACS analysis of activated CD4^+ T cells from two human donors (#1, #2) infected with R7GEMC alone or with 30 μM Raltegravir (RALTE 30). (b) Analysis of sorted CD4^+ T-cell populations from donors 1 and 2, after 48 h with anti-CD3/CD28-coated Dynabeads (αCD3/28), alone, with 30 μM Raltegravir, or untreated (CTR).

## N#C/C(=C\c1ccc(O)c(O)c1)C(=O)NCCCc1ccccc1 [AG555, α-Cyano-(3,4-dihydroxy)-N-(3-phenylpropyl)cinnamide]
[1]
  reactivation activity (percent population in the productive gate): slight but significant reactivation activity

## O=C1C(SCCO)=C(SCCO)C(=O)c2ccccc21 [NSC 95397]
[1]
  reactivation activity (percent population in the productive gate): clear artifacts or false positives

## O=C(CCCCCCC(=O)Nc1ccccc1)NO [SAHA, suberoylanilide hydroxamic acid]
HIV RNA expression
  reactivation of HIV RNA expression in patients: can reactivate HIV RNA expression in a subset of patients
[2]
  red signal (mApple, reactivated virus) versus negative controls: notably higher red signal
[3]
  response of mCherry-only positive cells to treatment: A subset of less-bright mCherry-only positive cells also responded
[1]
  expression of HIV promoter-dependent reporter: increased expression of HIV promoter-dependent reporter

## CN1CCc2cccc3c2[C@H]1Cc1ccc(O)c(O)c1-3 [apomorphin, apomorphine]
[1]
  reactivation activity (percent population in the productive gate): distinct effects in the two HIV clones

## COc1cc(C(=O)OCCCN2CCCN(CCCOC(=O)c3cc(OC)c(OC)c(OC)c3)CC2)cc(OC)c1OC [dilazep]
[4]
  effect on HIV latency in combination with SAHA: strongly enhanced the effect of low SAHA concentrations
  interaction with prostratin: synergistic with prostratin
[1]
  reactivation activity (percent population in the productive gate): slight but significant reactivation activity

## O=c1c(-c2ccc(O)cc2)coc2cc(O)cc(O)c12 [genistein]
[2]
  reactivation of latent HIV in the screen: reactivated latent HIV

## CC(=O)O[C@@]12C[C@@H](C)[C@@]3(O)[C@@H](C=C(CO)C[C@]4(O)C(=O)C(C)=C[C@@H]34)[C@@H]1C2(C)C [prostratin, (1aR,1bS,4aR,7aS,7bR,8R,9aS)-4a,7b-dihydroxy-3-(hydroxymethyl)-1,1,6,8-tetramethyl-5-oxo-1,1a,1b,4,4a,5,7a,7b,8,9-decahydro-9aH-cyclopropa[3,4]benzo[1,2-e]azulen-9a-yl]
[2]
  red signal (mApple, reactivated virus) versus negative controls: notably higher red signal
[3]
  response of mCherry-only positive cells to treatment: A subset of less-bright mCherry-only positive cells also responded
[1]
  expression of HIV promoter-dependent reporter: increased expression of HIV promoter-dependent reporter

## Cc1nnc(C(=O)NC(C)(C)c2nc(C(=O)NCc3ccc(F)cc3)c(O)c(=O)n2C)o1 [raltegravir]
[5]
  integration-independent expression of the fluorescent proteins: no integration-independent expression of the fluorescent proteins
[3]; 30 μM Raltegravir with anti-CD3/CD28-coated Dynabeads, 48 h
  effect on viral reactivation in the mCherry-only-positive population: did not reduce viral reactivation

## Oc1ccc(C=Cc2cc(O)cc(O)c2)cc1 [resveratrol]
[2]
  reactivation of latent HIV in the screen: reactivated latent HIV

## CC1=C(O)C(=O)[C@@H]2O[C@@H]2C1=O [terreic acid, (−)-terreic acid]
[4]
  effect on HIV latency in combination with SAHA: strongly enhanced the effect of low SAHA concentrations
  interaction with prostratin: synergistic with prostratin
[4]; with low TNFα (0.5 ng/ml)
  interaction with TNFα: synergistic interaction in most combinations except terreic acid
[1]
  reactivation activity (percent population in the productive gate): slight but significant reactivation activity

## TNF-α
[2]
  red signal (mApple, reactivated virus) versus negative controls: notably higher red signal
[1]
  expression of HIV promoter-dependent reporter: increased expression of HIV promoter-dependent reporter

Reference: patent US10106818B2, “Dual-color HIV reporter system for the detection of latently-infected cells” (priority 2013, dated 2018)
